Assay results published in ChEMBL document CHEMBL3792297, “Studies on phenothiazines: New microtubule-interacting compounds with phenothiazine A-ring as potent antineoplastic agents” (Bioorg Med Chem, 2016).

What was measured:
[1] = Growth inhibition of human IGROV1 cells at 10 uM after 48 hrs by SRB assay relative to control; type: functional; settings: IGROV-1, 48 h, read-out: GI
[2] = system: MDA-MB-435; assay: Growth inhibition of human MDA-MB-435 cells at 10 uM after 48 hrs by SRB assay relative to control; type: functional; settings: MDA-MB-435, 48 h, read-out: GI
[3] = Growth inhibition of human BT549 cells at 10 uM after 48 hrs by SRB assay relative to control; type: functional; settings: BT-549, 48 h, read-out: GI
[4] = system: NCI-H23; assay: Growth inhibition of human NCI-H23 cells at 10 uM after 48 hrs by SRB assay relative to control; type: functional; settings: NCI-H23, 48 h, read-out: GI
[5] = Growth inhibition of human HL-60(TB) cells at 10 uM after 48 hrs by SRB assay relative to control; type: functional; settings: HL-60, 48 h, read-out: GI
[6] = system: A498; assay: Growth inhibition of human A498 cells at 10 uM after 48 hrs by SRB assay relative to control; type: functional; settings: A498, 48 h, read-out: GI
[7] = system: MDA-MB-231; assay: Growth inhibition of human MDA-MB-231 cells at 10 uM after 48 hrs by SRB assay relative to control; type: functional; settings: MDA-MB-231, 48 h, read-out: GI
[8] = Growth inhibition of human UO31 cells at 10 uM after 48 hrs by SRB assay relative to control; type: functional; settings: UO-31, 48 h, read-out: GI
[9] = system: MDA-MB-468; assay: Growth inhibition of human MDA-MB-468 cells at 10 uM after 48 hrs by SRB assay relative to control; type: functional; settings: MDA-MB-468, 48 h, read-out: GI
[10] = system: NCI-H322M; assay: Growth inhibition of human NCI-H322M cells at 10 uM after 48 hrs by SRB assay relative to control; type: functional; settings: read-out: GI
[11] = system: SR; assay: Growth inhibition of human SR cells at 10 uM after 48 hrs by SRB assay relative to control; type: functional; settings: read-out: GI
[12] = system: NCI-H226; assay: Growth inhibition of human NCI-H226 cells at 10 uM after 48 hrs by SRB assay relative to control; type: functional; settings: NCI-H226, 48 h, read-out: GI
[13] = Growth inhibition of human SF268 cells at 10 uM after 48 hrs by SRB assay relative to control; type: functional; settings: SF-268, 48 h, read-out: GI
[14] = Growth inhibition of human Hs 578T cells at 10 uM after 48 hrs by SRB assay relative to control; type: functional; settings: read-out: GI
[15] = Growth inhibition of human HCT15 cells at 10 uM after 48 hrs by SRB assay relative to control; type: functional; settings: HCT-15, 48 h, read-out: GI
[16] = system: NCI-H522; assay: Growth inhibition of human NCI-H522 cells at 10 uM after 48 hrs by SRB assay relative to control; type: functional; settings: NCI-H522, 48 h, read-out: GI
[17] = system: 786-0; assay: Growth inhibition of human 786-0 cells at 10 uM after 48 hrs by SRB assay relative to control; type: functional; settings: 786-0, 48 h, read-out: GI
[18] = Growth inhibition of human OVCAR3 cells at 10 uM after 48 hrs by SRB assay relative to control; type: functional; settings: OVCAR-3, 48 h, read-out: GI
[19] = Growth inhibition of human SF539 cells at 10 uM after 48 hrs by SRB assay relative to control; type: functional; settings: SF-539, 48 h, read-out: GI
[20] = Growth inhibition of human RPMI8226 cells at 10 uM after 48 hrs by SRB assay relative to control; type: functional; settings: RPMI-8226, 48 h, read-out: GI
[21] = system: A549; assay: Growth inhibition of human A549 cells at 10 uM after 48 hrs by SRB assay relative to control; type: functional; settings: A549, 48 h, read-out: GI
[22] = system: T47D; assay: Growth inhibition of human T47D cells at 10 uM after 48 hrs by SRB assay relative to control; type: functional; settings: read-out: GI
[23] = Growth inhibition of human NCI-ADR-RES cells at 10 uM after 48 hrs by SRB assay relative to control; type: functional; settings: read-out: GI
[24] = system: ACHN; assay: Growth inhibition of human ACHN cells at 10 uM after 48 hrs by SRB assay relative to control; type: functional; settings: read-out: GI
[25] = species on record: Ovis aries; assay: Inhibition of sheep brain tubulin polymerization at 100 uM by DAPI staining-based fluorimetric method
[26] = Growth inhibition of human DU145 cells at 10 uM after 48 hrs by SRB assay relative to control; type: functional; settings: DU-145, 48 h, read-out: GI
[27] = Growth inhibition of human SW620 cells at 10 uM after 48 hrs by SRB assay relative to control; type: functional; settings: SW-620, 48 h, read-out: GI
[28] = Growth inhibition of human SNB75 cells at 10 uM after 48 hrs by SRB assay relative to control; type: functional; settings: SNB-75, 48 h, read-out: GI
[29] = Growth inhibition of human HCC2998 cells at 10 uM after 48 hrs by SRB assay relative to control; type: functional; settings: HCC 2998, 48 h, read-out: GI
[30] = system: K562; assay: Growth inhibition of human K562 cells at 10 uM after 48 hrs by SRB assay relative to control; type: functional; settings: K562, 48 h, read-out: GI
[31] = Growth inhibition of human HCT116 cells at 10 uM after 48 hrs by SRB assay relative to control; type: functional; settings: HCT-116, 48 h, read-out: GI
[32] = system: SK-MEL-5; assay: Growth inhibition of human SK-MEL-5 cells at 10 uM after 48 hrs by SRB assay relative to control; type: functional; settings: SK-MEL-5, 48 h, read-out: GI
[33] = Growth inhibition of human SF295 cells at 10 uM after 48 hrs by SRB assay relative to control; type: functional; settings: SF-295, 48 h, read-out: GI
[34] = Growth inhibition of human UACC257 cells at 10 uM after 48 hrs by SRB assay relative to control; type: functional; settings: UACC-257, 48 h, read-out: GI
[35] = system: KM12; assay: Growth inhibition of human KM12 cells at 10 uM after 48 hrs by SRB assay relative to control; type: functional; settings: KM12, 48 h, read-out: GI
[36] = system: SK-MEL-28; assay: Growth inhibition of human SK-MEL-28 cells at 10 uM after 48 hrs by SRB assay relative to control; type: functional; settings: SK-MEL-28, 48 h, read-out: GI
[37] = system: HT-29; assay: Growth inhibition of human HT-29 cells at 10 uM after 48 hrs by SRB assay relative to control; type: functional; settings: HT-29, 48 h, read-out: GI
[38] = Growth inhibition of human HOP92 cells at 10 uM after 48 hrs by SRB assay relative to control; type: functional; settings: HOP-92, 48 h, read-out: GI
[39] = system: SK-MEL-2; assay: Growth inhibition of human SK-MEL-2 cells at 10 uM after 48 hrs by SRB assay relative to control; type: functional; settings: SK-MEL-2, 48 h, read-out: GI

Row | SMILES | inhibition of growth at 10 µM [1] [%] | inhibition of growth at 10 µM [3] [%] | inhibition of growth at 10 µM [4] [%] | inhibition of growth at 10 µM [5] [%] | inhibition of growth at 10 µM [6] [%] | inhibition of growth at 10 µM [7] [%] | inhibition of growth at 10 µM [8] [%] | inhibition of growth at 10 µM [9] [%] | inhibition of growth at 10 µM [11] [%] | inhibition of growth at 10 µM [12] [%] | inhibition of growth at 10 µM [13] [%] | inhibition of growth at 10 µM [14] [%] | inhibition of growth at 10 µM [15] [%] | inhibition of growth at 10 µM [16] [%] | inhibition of growth at 10 µM [17] [%] | inhibition of growth at 10 µM [18] [%] | inhibition of growth at 10 µM [19] [%] | inhibition of growth at 10 µM [20] [%] | inhibition of growth at 10 µM [21] [%] | inhibition of growth at 10 µM [22] [%] | other results
1 | COc1ccc(C(=O)N2c3ccccc3Sc3ccccc32)c(F)c1 | 45 | 77 | 68 | 85 | 98 | 47 | 51 | 100 | 77 | 54 | 47 | 84 | 73 | 99 | 77 | 100 | 100 | 81 | 73 | 60 | inhibition of growth at 10 µM [2]: 100%; inhibition of growth at 10 µM [10]: 56%; inhibition of growth at 10 µM [23]: 98%; inhibition of growth at 10 µM [24]: 52%; inhibition [25]: 75%; inhibition of growth at 10 µM [26]: 95%; inhibition of growth at 10 µM [27]: 85%; inhibition of growth at 10 µM [28]: 100%; inhibition of growth at 10 µM [29]: 70%; inhibition of growth at 10 µM [30]: 87%; inhibition of growth at 10 µM [31]: 80%; inhibition of growth at 10 µM [32]: 84%; inhibition of growth at 10 µM [33]: 91%; inhibition of growth at 10 µM [34]: 33%; inhibition of growth at 10 µM [35]: 77%; inhibition of growth at 10 µM [36]: 41%; inhibition of growth at 10 µM [37]: 95%; inhibition of growth at 10 µM [38]: 58%
2 | O=C(c1ccc(F)cc1F)N1c2ccccc2Sc2ccccc21 | 33 | 43 | 23 | 71 | 38 | 38 | 31 | 64 | 72 | 30 | 46 | 16 | 76 | 41 | 26 | 43 | 49 | 47 | 48 | 35 | inhibition of growth at 10 µM [2]: 80%; inhibition of growth at 10 µM [10]: 8%; inhibition of growth at 10 µM [23]: 55%; inhibition of growth at 10 µM [24]: 20%; inhibition [25]: 25%; inhibition of growth at 10 µM [26]: 20%; inhibition of growth at 10 µM [27]: 66%; inhibition of growth at 10 µM [28]: 31%; inhibition of growth at 10 µM [29]: 47%; inhibition of growth at 10 µM [30]: 82%; inhibition of growth at 10 µM [31]: 73%; inhibition of growth at 10 µM [32]: 68%; inhibition of growth at 10 µM [33]: 36%; inhibition of growth at 10 µM [34]: 44%; inhibition of growth at 10 µM [35]: 62%; inhibition of growth at 10 µM [36]: 41%; inhibition of growth at 10 µM [37]: 68%; inhibition of growth at 10 µM [38]: 39%; inhibition of growth at 10 µM [39]: 19%
3 | COc1ccc(C(=O)N2c3ccccc3Sc3ccccc32)c(OC)c1 | 47 | 83 | 62 | 99 | 95 | 62 | 52 | 100 | 78 | 69 | 63 | 85 | 81 | 100 | 71 | 100 | 100 | 84 | 69 | 59 | inhibition of growth at 10 µM [2]: 100%; inhibition of growth at 10 µM [10]: 38%; inhibition of growth at 10 µM [23]: 100%; inhibition of growth at 10 µM [24]: 57%; inhibition [25]: 53%; inhibition of growth at 10 µM [26]: 90%; inhibition of growth at 10 µM [27]: 75%; inhibition of growth at 10 µM [28]: 82%; inhibition of growth at 10 µM [29]: 87%; inhibition of growth at 10 µM [30]: 89%; inhibition of growth at 10 µM [31]: 91%; inhibition of growth at 10 µM [32]: 81%; inhibition of growth at 10 µM [33]: 88%; inhibition of growth at 10 µM [34]: 23%; inhibition of growth at 10 µM [35]: 86%; inhibition of growth at 10 µM [36]: 42%; inhibition of growth at 10 µM [37]: 100%; inhibition of growth at 10 µM [38]: 69%; inhibition of growth at 10 µM [39]: 62%
4 | O=C(c1ccc2c(c1)Sc1ccccc1N2)c1c[nH]c2ccccc12 | 71 | 69 | 68 | 85 | 92 | 54 | 58 | 100 | 76 | 18 | 45 | 100 | 68 | 100 | 50 | 100 | 100 | 56 | 77 | 72 | inhibition of growth at 10 µM [23]: 100%; inhibition of growth at 10 µM [24]: 45%; inhibition [25]: 66%; inhibition of growth at 10 µM [26]: 91%; inhibition of growth at 10 µM [27]: 71%; inhibition of growth at 10 µM [28]: 100%; inhibition of growth at 10 µM [29]: 64%; inhibition of growth at 10 µM [30]: 81%; inhibition of growth at 10 µM [31]: 82%; inhibition of growth at 10 µM [32]: 89%; inhibition of growth at 10 µM [33]: 96%; inhibition of growth at 10 µM [34]: 43%; inhibition of growth at 10 µM [35]: 87%; inhibition of growth at 10 µM [36]: 54%; inhibition of growth at 10 µM [37]: 99%; inhibition of growth at 10 µM [38]: 28%; inhibition of growth at 10 µM [39]: 94%
